Measurements as given in a melting point compilation (Tetko et al.; mined from patent text by program, amines drawn as free bases though some values may be those of a salt).

Row | melting point [°C] | SMILES
1 | 204 to 205 | CC(C)n1c(=O)n(C(=O)NC2CCN(C)CC2)c2ccccc21
2 | 220 to 222 | O=C1OCCC12Sc1ccc(S(=O)(=O)N3CCOCC3)cc1C2=O (stereo unspecified)
3 | 151 to 152 | CC(=O)NCc1ccc(CN2CCN(c3ncc([N+](=O)[O-])s3)CC2)cc1
4 | 263 to 264 | O=C(O)CCC(=O)Nc1ccc(N2CCN(c3ccncc3)CC2)cc1
5 | 97 to 100 | Cc1ccc(-n2c(=O)[nH]c(C(F)(F)F)c(F)c2=O)cc1C(=O)OC(C)C
6 | 144 to 146 | CNc1ncnc(N2CCc3ccccc3CC2)c1[N+](=O)[O-]
7 | 87 to 90 | Cc1oc(-c2ccccc2)nc1CCOc1ccc(CC(Nc2ccccc2C(=O)c2cccc(CO)c2)C(=O)O)cc1 (stereo unspecified)
8 | 117 to 119 | CCOC(=O)C=Cc1ccc2c(c1)CC(CNC(=O)OC(C)(C)C)CC2 (stereo unspecified)
9 | 145 | O=C(c1ccc([N+](=O)[O-])cc1)N1CCc2cc(S(=O)(=O)N3CC(c4ccccc4)NC3=O)ccc21 (stereo unspecified)
10 | 112 | CCOC(=O)C1CSCCN1C(=O)Nc1ccc(Cl)cc1F (stereo unspecified)
11 | 72 to 74 | COC(=O)C1CCCCN1S(N)(=O)=O (stereo unspecified)
12 | 267 to 270 | CC(=O)c1cc(C#N)c(=O)[nH]c1C=CN(C)C
13 | 94 to 96 | O=C(O)C1Cc2cc(-c3ccc(Cl)cc3)ccc2O1 (stereo unspecified)
14 | 230 to 232 | CS(=O)(=O)OCC1CSC2=C(O1)c1ccccc1C(=O)C2=O (stereo unspecified)
15 | 228 to 233 | O=C(Nc1cccc(Cl)c1C(=O)O)c1ccc(F)cc1
16 | 123 | Cc1ccc2c(c1)c(=O)c1c(cnn1C)n2-c1cccc(I)c1
17 | 200 to 202 | COc1ccc2c(=O)nc(-c3ccccn3)sc2c1
18 | 104 to 105 | CCOC(=O)c1cnn(-c2ccc(Br)cc2)c1C#N
19 | 130 to 133 | CC(C)=CCOc1ccc2c(=O)c(C)c(-c3ccccc3)oc2c1C(=O)C=Cc1ccc(Cl)cc1
20 | 151 to 153 | COC(=O)c1ccc2c(c1)c(=O)[nH]c(=O)n2CCCCN1CCC(OC(c2ccccc2)c2ccccc2)CC1
21 | 62 to 64 | CNC(=O)c1cc2c(Oc3ccc(Cl)c(F)c3)cncc2s1
22 | 154 to 155 | CCOC(=O)c1c(Nc2ccncc2)c2ccc(Cl)cc2n1C
23 | 210 to 211 | CC(C)(C)OC(=O)Nc1cccc(C2CCN(c3nc4c(cc3F)c(=O)c(C(=O)O)cn4C3CC3)C2)c1 (stereo unspecified)
24 | 167 to 169 | COc1ccc(C#N)cc1C(=O)NCCN1CCC(C(=O)c2ccc(F)cc2)CC1
25 | 117 to 122 | O=C(O)CCC(CNCC(CO)(NC(=O)OC1C2CC3CC(C2)CC1C3)C(=O)c1c[nH]c2ccccc12)c1ccccc1 (stereo unspecified)
26 | 118 to 119 | CN(C)C=C(C(=O)c1cccc2c1OC(F)(F)O2)C(=O)C1CC1
27 | 180 to 181 | COC(=O)c1ccc(Cc2cn(C)c3ccc(NC(=O)CC4CCCC4)cc23)c(OC)c1

Row | melting point [°C] | SMILES
28 | 103 to 105 | COc1cc2c(c(Cl)c1Cl)C(=O)C(CCCl)=C2
29 | 254 | Nc1ccc(-c2noc(-c3cnn4c(C(F)F)cc(-c5ccc(Cl)cc5)nc34)n2)cn1
30 | 129 | CCOC(=O)Nc1cc(N(C(=O)OCC)S(C)(=O)=O)c(C#N)cc1F
31 | 158 to 161 | Cc1nc(N2CCN(CC(C)C)C2=O)sc1C(=O)NCc1ccn(C)n1
32 | 126 to 128 | COc1cccc(C(O)c2ccncc2)c1OC (stereo unspecified)
33 | 190 to 192 | COc1ccc(-c2ccc3c(c2)c2c(C=Cc4ccccc4)ccnc2n3S(=O)(=O)c2ccccc2)cc1
34 | 149 to 151 | CCCCn1c(CCOC)nc2c(N)nc3ccccc3c21
35 | 108 to 110 | CCn1cc(C(=O)C(Cl)Cl)c(=O)c(-c2cccc(C(F)(F)F)c2)c1
36 | 178 | CCOC(=O)Nc1cc(Oc2ncccn2)c(Br)cc1F
37 | 82 to 84 | CC(=O)Oc1cc2c(cc1C(C)(C)C)OC(C)(COc1ccc([N+](=O)[O-])cc1)CC2=O (stereo unspecified)
38 | 143 to 145 | CCn1ncc(-c2ccc3c(c2)c(C2=CCN(CCN4CCNC4=O)CC2)cn3-c2ccc(F)cc2)n1
39 | 234 to 237 | CCc1nc2c(N)nc3cc(CCC(=O)N(C)C)ccc3c2n1CC(C)(C)O
40 | 131 to 132 | O=C(CCC(=O)N1CCC(c2ccc(Cl)cc2)CC1)c1ccc2c(c1)CCN(C(=O)C(F)(F)F)CC2
41 | 111 to 142 | COCCNC(=O)CN1CCN(Cc2ccc3c(c2)NC(=O)C(C)O3)CC1 (stereo unspecified)
42 | 140 to 150 | CS(=O)(=O)c1cc(C(=O)O)ccc1Oc1ccc([N+](=O)[O-])cc1
43 | 286 to 287 | O=C1CCC(=O)N1Cc1nc2sc3c(c2c(-c2ccc(O)cc2)c1Cl)CCNC3
44 | 185 to 186 | C#CCOc1ccc2c(C)cc(=O)oc2c1C(=O)C=Cc1ccc(F)cc1
45 | 121 to 122 | COC(=O)C(=C/c1ccccc1)/C(=C\c1cc(OC)c(OC)c(OC)c1)C(N)=O
46 | 160 | N[C@H]1CCCC[C@@H]1Nc1ccnc2cc(Cl)ccc12
47 | 113 to 114 | CCOC(=O)C(C)(C)n1c(=O)c2ccccc2n(CCCCBr)c1=O
48 | 194 to 197 | Cc1c(C(=O)NCc2ccc3c(Br)c(OCC#N)ccc3c2)oc2ccccc12
49 | 240 to 242 | COc1c(N2CC(C)C(NC3CC3)C(C)C2)c(F)cc2c(=O)c(C(=O)O)cn(C3CC3)c12 (stereo unspecified)
50 | 179 to 180 | CC(=O)Oc1ccc(-c2c3ccccc3cc3sc4ccccc4c23)cc1OC(C)=O
51 | 64 | CCCCCCC1C(=O)NC(C(=O)SCCC(=O)OC)(C(O)C2C=CCCC2)C1(C)O (stereo unspecified)
52 | 228 to 230 | NC(=O)c1c(C(=O)O)cnn1-c1cccc(Cl)c1Cl
53 | 181 to 186 | Cc1nnc(-c2ccccc2F)n2nc(OCc3cn(C)nn3)c(-c3ccsc3)c12

Further lines, the molecule ahead of its results:

Row | SMILES | melting point [°C]
54 | CNc1c(S(=O)C(F)(F)F)c(C#N)nn1-c1c(Cl)cc(C(F)(F)F)cc1Cl (stereo unspecified) | 227
55 | O=C1NCCc2c1c1ccccc1n2COCc1ccccc1 | 133 to 135
56 | CCCCC1=C(C#N)C(c2cccc3nonc23)c2c[nH]nc2N1 (stereo unspecified) | 200
57 | COc1ccc(-c2c(C)ccn2-c2ccc(S(C)(=O)=O)cc2)cc1 | 131 to 132
58 | COC(=O)CCSc1nc(C(N)=O)cs1 | 151 to 152
59 | O=c1[nH]c2cc(Cl)ccc2n1C1CCN(Cc2cncc(-c3ccccc3)c2)CC1 | 229 to 231
60 | COC(=O)CCc1cnoc1-c1ccc(Br)cc1 | 58 to 59
61 | O=S1(=O)CCCSC(Cl)=N1 | 156
62 | CC1=NCN(c2ccc(Br)s2)O1 | 48 to 49
63 | CCCCN(CCCC)C(=O)c1cc(C(C)(C)C)c(O)c(C(C)(C)C)c1 | 94 to 95
64 | NC(=O)c1cccc(OCc2ccc(F)cc2)c1 | 161 to 162
65 | COc1cc(C(C)C)c(OCC#N)cc1I | 67.5 to 68.8
66 | S=C(Nc1ccccc1)Nc1ncccc1OCc1c(Cl)cccc1Cl | 148 to 149
67 | CCC(=O)c1ccc2c(Cc3ccccc3)c(CC)oc2c1 | 86 to 87
68 | Nc1ccc2nc(-c3ccccc3)oc2n1 | 210
69 | CCCCc1cn(-c2ccccc2C(C)C)c(=O)n1Cc1ccc(-c2ccccc2-c2nnn[nH]2)cc1 | 167 to 168
70 | CC(C)CNc1ccc(Cl)cc1C(O)c1ccccc1OCc1ccccc1 (stereo unspecified) | 79 to 80
71 | Clc1ccc(Cn2cnc3c(-c4ccco4)ncnc32)cc1Cl | 183 to 185
72 | Cn1nc(C(F)(F)F)c(CSC2=NOC(C)(C)C2)c1OC(F)F | 39 to 40
73 | C=Cc1ccc(COc2ccc(CO)cc2)cc1 | 110 to 112
74 | CCCCCCCCCCCCCCCC(=O)OCC1(O)COC(O)(COC(=O)CCCCCCCCCCCCCCC)CO1 (stereo unspecified) | 95.2
75 | CCCCNC(=O)Nc1sc2c(c1C#N)CCCC2 | 170 to 171
76 | O=C1NC(=O)c2c1c(-c1ccccc1Cl)cc1c2c(Cl)c(CO)n1CCCO | 218 to 219
77 | ON=Cc1ccc2c(c1)ncn2-c1cccc(-c2ccncn2)c1 | 220 to 221

Row | SMILES | melting point [°C]
78 | CCC1C(C)=NN=C(c2cc(OC)c(OC)c(OC)c2)c2cc(OC)c(OC)cc21 (stereo unspecified) | 152 to 155
79 | CN1CCCC2CCCC(N(C)C(=O)Cc3ccc(Cl)c(Cl)c3)C21 (stereo unspecified) | 92
80 | CCC(=O)NCC=C1CCc2ccc3nc(CCCCc4ccccc4)oc3c21 | 111 to 113
81 | CN(C)CCc1nc2cccnc2[nH]1 | 109 to 112
82 | CC1(c2cccc(N)c2)OCCO1 | 75 to 77
83 | N[C@@H](Cc1ccccc1)C(=O)N(CC1CC(Br)=NO1)C(=O)OCc1ccccc1 (stereo partly specified) | 122 to 125
84 | CCCCCCC(C)OS(=O)(=O)NC(=O)Nc1c(C(C)C)cccc1C(C)C (stereo unspecified) | 109 to 113
85 | CCOc1ccc(S(=O)(=O)Nc2cccnc2Nc2ccccc2)cc1 | 161 to 162
86 | Nc1ncn(C[C@H](O)COC(c2ccccc2)(c2ccccc2)c2ccccc2)c(=O)n1 | 130 to 132
87 | c1ccc(CCNc2cc(-n3cccn3)nc(-c3ccco3)n2)nc1 | 110 to 111
88 | OCc1ccc(O)c(CO)c1CNCCCCCCOCCc1ccco1 | 91 to 93
89 | CCOC(=O)c1cnn(-c2ccc(F)cc2)c1 | 119 to 121
90 | CC1(O)CC(=O)OC(c2ccc(-c3ccccc3)cc2)C1Br (stereo unspecified) | 173 to 176
91 | NC(CO)COc1ccc(Oc2ccccc2)cc1 (stereo unspecified) | 61.9
92 | C[C@@](O)(C(=O)Nc1ccc(S(=O)(=O)c2ccccc2S(C)(=O)=O)cc1Cl)C(F)(F)F | 114 to 116
93 | CNC(=O)Cn1c(-c2ccc(C)cc2)nc2ccc(Cl)nc21 | > 250
94 | CCCCCCCCCCCCCCCCC(C)C(=S)OC (stereo unspecified) | 39 to 40
95 | O=c1oc2ncccc2n1CCCBr | 62 to 63
96 | CN1Cc2c(Cl)ccc3scc(c23)S1(=O)=O | 196
97 | O=C(NCCCl)Oc1ccc(Cl)c2cccnc12 | 146
98 | Cc1sc(CO)c(C)c1Br | 85 to 90
99 | COC(=O)CCCCCCC(=O)c1ccc(OC)cc1 | 57 to 58
100 | CCOP(=O)(OCC)C(CCc1cc(C)nc2c(Br)c(-c3ccccc3)nn12)P(=O)(OCC)OCC | 46 to 48
101 | CC#CCOc1cc(Cl)ncn1 | 43.5
